Results from patent publication US6046228A, “Anti-viral pharmaceutical compositions containing saturated 1,2-dithiaheterocyclic compounds and uses thereof” (priority 1999, dated 2000).
Where two headings read alike, the source gives them in different places.

Legend:
HIV-1RF = assay: XTT cytoprotection (cytopathicity) anti-HIV assay, CEM-SS cells; format: cell-based
Procedure: Initial anti-HIV screening was performed with CEM-SS cells and HIV-1RFusing the XTT cytoprotection assay as previously described (Weislow et al., J. National Cancer Inst. 81: 577-586, (1989)). HIV-1 isolates included common laboratory stains (RF, IIIB and MN), as well as a panel of HIV-1 clinical isolates (Cushman et al., J. Med. Chem. 37: 3040-3050, (1994)). The pyridone-resistant HIV-1A17 isolate (Nunberg et al., J. Virol., 65: 4887-4892 (1991)) was obtained from Emilio Emini at Merck Sharpe and Dohme Laboratories. Phytohemagglutinin-stimulated human peripheral blood lymphocytes (PBLs) and fresh monocyte-macrophage (Mono/MF) cultures were prepared and utilized in antiviral assays as previously described (Rice et al., Proc. Nat'l. Academy Science, USA 90: 9721-9724, (1993)); (Cushman et al., J. Med. Chem. 37: 3040-3050, (1994)). EC50 values for these cultures indicate the drug concentration that provided a 50% reduction in viral p24 production. […] The compounds can be synthesized according to the teachings of Singh et al., Sulfur Letters 8: 107-114, (1988). […] MT-2, MT-4, U1, HeLa-CD4-LTR-β-gal and 174xCEM cells were obtained from the AIDS Research and Reference Program (National Institute of Allergy and Infectious Disease, National Institutes of Health, Bethesda, Md. USA), as were the HIV-2MS and the AZT-resistant HIV-1G910-6 isolates.
Racemate and enantiomers of the cis-1,1-dioxo[1,2]dithiane-4,5-diol were synthesized and evaluated for antiviral activity in the XTT assay as described hereinabove.

HIV-1 integrase = target: T1, HIV-1 integrase (Human immunodeficiency virus type 1 group M subtype B, UniProt P04585); assay: HIV-1 integrase activity; format: biochemical
T1 construct: the purified HIV-1 protease and integrase enzymes

HIV-1NL4-3 Y188C = assay: XTT cytopathicity assay, NL4-3 site-directed RT mutant; format: cell-based; details: MT-2, NL4-3 Y188C
Procedure: (§1) Initial anti-HIV screening was performed with CEM-SS cells and HIV-1RFusing the XTT cytoprotection assay as previously described (Weislow et al., J. National Cancer Inst. 81: 577-586, (1989)). HIV-1 isolates included common laboratory stains (RF, IIIB and MN), as well as a panel of HIV-1 clinical isolates (Cushman et al., J. Med. Chem. 37: 3040-3050, (1994)). The pyridone-resistant HIV-1A17 isolate (Nunberg et al., J. Virol., 65: 4887-4892 (1991)) was obtained from Emilio Emini at Merck Sharpe and Dohme Laboratories. Phytohemagglutinin-stimulated human peripheral blood lymphocytes (PBLs) and fresh monocyte-macrophage (Mono/MF) cultures were prepared and utilized in antiviral assays as previously described (Rice et al., Proc. Nat'l. Academy Science, USA 90: 9721-9724, (1993)); (Cushman et al., J. Med. Chem. 37: 3040-3050, (1994)). EC50 values for these cultures indicate the drug concentration that provided a 50% reduction in viral p24 production. […] The compounds can be synthesized according to the teachings of Singh et al., Sulfur Letters 8: 107-114, (1988). The 4,5-cis-dihydroxy(1,1-dioxy-1,2,-dithiohexane) compound (NSC 624151) has been abbreviated as 624151 for convenience. MT-2, MT-4, U1, HeLa-CD4-LTR-β-gal and 174xCEM cells were obtained from the AIDS Research and Reference Program (National Institute of Allergy and Infectious Disease, National Institutes of Health, Bethesda, Md. USA), as were the HIV-2MS and the AZT-resistant HIV-1G910-6 isolates.
(§2) ^a Anti-HIV studies utilizing lymphocytederived cell lines were
(§3) performed using the XTT cytopathicity assay, while antiviral assays

HIV-1NL4-3 L74V = assay: as above; format: cell-based; details: MT-2, NL4-3 L74V
Procedure: as §1, §2, §3

HIV-1NL4-3 V1061 = assay: as above; format: cell-based; details: MT-2, NL4-3 V1061
Procedure: as §1, §2, §3

HIV-1NL4-3 A986 = assay: as above; format: cell-based; details: MT-2, NL4-3 A986
Procedure: as §1, §2, §3

HIV-1NL4-3 V179D = assay: as above; format: cell-based; details: MT-2, NL4-3 V179D
Procedure: as §1, §2, §3

HIV-1NL4-3 V1081 = assay: as above; format: cell-based; details: MT-2, NL4-3 V1081
Procedure: as §1, §2, §3

HIV-1NL4-3 K103N = assay: as above; format: cell-based; details: MT-2, NL4-3 K103N
Procedure: as §1, §2, §3

HIV-1NL4-3 4XAZT = assay: as above; format: cell-based; details: MT-2, NL4-3 4XAZT
Procedure: as §1, §2, §3

HIV-1NL4-3 Y181C = assay: as above; format: cell-based; details: MT-2, NL4-3 Y181C
Procedure: as §1, §2, §3

HIV-1 p66-p51 RT = target: T2, HIV-1 p66-p51 RT (Human immunodeficiency virus type 1 group M subtype B, UniProt P04585); assay: reverse transcriptase activity assay; format: biochemical; details: for inhibition of HIV-1 RT: in words
T2 construct: the purified HIV-1 p66-p51 RT enzyme
Procedure: The effects of 624151 on the in vitro activity of purified RT was determined by measurement of incorporation of [^3 H]TTP onto the poly(rA):oligo(dT)(rAdT) or poly(rC):oligo(dG)(rCdG) homopolymer template/primer systems. Samples (5 μL) were blotted onto DE81 paper, washed with 5% dibasic sodium phosphate as previously described (Buckheit et al., Antiviral Res. 21:247, (1993)), and then quantitated on a Packard Matrix 9600 dual beam counter. 3'-Azido-3'-deoxythymidine-5 '-triphosphateand UC38 (NSC 629243) served as positive controls for inhibition of RT. HIV-1 protease activity was quantitated by a reversed phase HPLC assay utilizing the […]Amide substrate (Multiple Peptide Systems, San Diego, Calif.) as previously described in Rice et al. (Proc. Nat'l. Academy of Science USA 9: 9721-9724, (1993)).

Work on O=S1(=O)C[C@H](O)[C@H](O)CS1 (relative stereo) [NSC 624151, cis-1,1-dioxo[1,2]dithiane-4,5-diol] yielded an EC50 (HIV-1RF; Human immunodeficiency virus 1, CEM-SS, CEM-SS cells, HIV-1RF, read-out: XTT Assay EC50) of 6.6 µM, an EC50 (HIV-1RF; Human immunodeficiency virus 1, CEM-SS, CEM-SS, RF, Table 2, read-out: EC50) of 6.6 µM and an EC50 (HIV-1RF; Human immunodeficiency virus 1, CEM-SS, Table 5, read-out: EC50 Duplicates) of 9.53 µM. The EC50 (HIV-1RF; Human immunodeficiency virus 1, CEM-SS, Table 5, read-out: EC50 Mean) was 12.2 µM, the EC50 (HIV-1RF; Human immunodeficiency virus 1, CEM-SS, XTT cytopathicity assay, Table 4, read-out: Infection EC50 (Mean ± S.D., n = 6)) was 7.85 ± 5.5 µM and the EC50 (HIV-1RF; Table 5, read-out: EC50 Duplicates) was 14.9 µM. For the same compound, the “EC50 relative to enantiomer or racemate” value (HIV-1RF; in words) was “the average of these EC50 s is equivalent to the EC50 for the racemic mixture”, the “inhibition of HIV-1 integrase” value (HIV-1 integrase; in words) was “not inhibited” and the IC50 (HIV-1 integrase; read-out: Integrase ID50) was over 100 µM. It also gave an EC50 (HIV-1NL4-3 Y188C) of 19.4 µM, an EC50 (HIV-1NL4-3 L74V) of 19.8 µM and an EC50 (HIV-1NL4-3 V1061) of 20.8 µM. For the same compound, the EC50 (HIV-1NL4-3 A986) was 26.5 µM, the EC50 (HIV-1NL4-3 V179D) was 20.2 µM and the EC50 (HIV-1NL4-3 V1081) was 20 µM. For the same compound, the EC50 (HIV-1NL4-3 K103N) was 17.3 µM, the EC50 (HIV-1NL4-3 4XAZT) was 10.7 µM and the EC50 (HIV-1NL4-3 Y181C) was 20.9 µM. The “inhibition of HIV-1 RT” value (HIV-1 p66-p51 RT; rAdT template/primer) was “not inhibited”, the IC50 (HIV-1 p66-p51 RT; rAdT, read-out: RT Activity rAdT ID50) was over 100 µM and the “inhibition of HIV-1 RT” value (HIV-1 p66-p51 RT; rCdG template/primer) was “not inhibited”.
